Molecular target: T1, guinea pig trachea (NKA or [β-ala8]-NKA(4-10) as agonist) (Cavia porcellus, UniProt Q64077)
T1 construct: The trachea are removed, trimmed of excess tissue and divided into two segments; from tissue; host or cells: guinea pig trachea rings (male animals)
T1 sequence (Q64077 1-402): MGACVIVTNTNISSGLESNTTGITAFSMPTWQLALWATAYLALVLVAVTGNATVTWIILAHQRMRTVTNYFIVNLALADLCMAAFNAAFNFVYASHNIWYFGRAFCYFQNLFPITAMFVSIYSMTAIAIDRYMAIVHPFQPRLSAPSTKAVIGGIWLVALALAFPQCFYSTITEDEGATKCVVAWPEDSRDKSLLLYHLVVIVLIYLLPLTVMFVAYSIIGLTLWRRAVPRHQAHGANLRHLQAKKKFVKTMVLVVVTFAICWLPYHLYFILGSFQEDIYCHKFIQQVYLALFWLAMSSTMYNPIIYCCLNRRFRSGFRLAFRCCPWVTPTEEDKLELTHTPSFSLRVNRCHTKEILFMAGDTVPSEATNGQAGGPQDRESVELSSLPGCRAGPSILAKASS
Experiment: Guinea Pig Assay (Test B): antagonism of NKA or [β-ala8]-NKA(4-10) contraction in guinea pig trachea
Conditions: -log molar KB
Procedure: In the test described below either NKA or [β-ala^8 ]-NKA(4-10) is used as an agonist. The chosen agonist is refered to as AG throughout the description.
Male guinea pigs are killed by a sharp blow to the back of the head. The trachea are removed, trimmed of excess tissue and divided into two segments. […] Initial tension placed on each tissue is 1 g, which is maintained throughout a 0.5 to 1.5 hour equilibration period before addition of other drugs. Contractile responses are measured on a Grass polygraph via Grass FT-03 force transducers.
Tissues are challenged repetitively with a single concentration of AG (10 nM) with intervening 30 min periods with washing to allow the tension to return to baseline levels. […] Percent inhibition is determined when a Compound produces a statistically significant (p<0.05) reduction of the contraction and is calculated using the second contractile response as 100%.
Potencies of selected Compounds are evaluated by calculating apparent dissociation constants (KB) for each concentration tested using the standard equation: […]
where dose ratio=antilog[(AG -log molar EC50 without Compound)--(AG -log molar EC50 with Compound)]. The KB values may be converted to the negative logarithms and expressed as -log molar KB (i.e. pKB). […] The EC50 values are converted to the negative logarithms and expressed as -log molar EC50. […]

- Kb: 20 nM
SMILES: CC(=O)N(C1CCCCC1)C1CCN(CCC(CN(C)C(=O)c2ccccc2)c2ccc(Cl)c(Cl)c2)CC1 (stereo not shown) [Example 4, N-[4-[4-(N-Cyclohexylacetamido)piperidino]-2-(3,4-dichlorophenyl)butyl]-N-methylbenzamide]
